Counter-ions that a name gives are not always drawn.

One series concerns the target DHP membranous site. The series can be described thus: Receptor binding at DHP membranous site with 3H-radiolabelled ligand isradipine. Conditions: same value used as dose in aorta test, read-out: IC50 at the receptors. As to the method:
(§1) For this purpose, the IC50 values were at first determined at the receptors (on the DHP membranous site with ^3 H-radiolabelled ligand isradipine and with these doses the percentage of inhibition in the contraction of the isolated aorta was determined.

Series [1] in a line: Solubility in water (noted in preparation). The format is physicochemical. Conditions: isolated powder, in words.
The next series has as its system rat's isolated aorta. The series can be described thus: Calcium blocking activity in vitro: KCl contraction of the rat's isolated aorta. The format is cell-based. As to the method:
The calcium blocking activity was determined in vitro by using the method of contracting the rat's isolated aorta with KCI (see Bernard Swynghedauw--Animal Experiments in Cardiology, Collection INSERM Medicine Sciences, Flammarion).
as §1

Series [2] relates to histamine hyperpermeability in Sprague-Dawley rats. The series can be described thus: Effect on histamine hyperpermeability (Evan's Blue intradermal extravasation). The format is in vivo, rat (Sprague-Dawley). How it is done:
The effect of CRL 41695 administered intraperitoneally on hystamine hyperpermeability was tested on Sprague-Dawley rats.
The parameter tested was the effect on Evan's Blue intradermal extravasation induced by histamine injection.
24 hours after shaving and epilation of the rat's flanks, CRL 41695 was injected intraperitoneally at dose levels of 10 mg/kg (dispersed in 0.9% NaCl +5% carboxymethylcellulose) and 10 minutes later 0.25 ml/100 g of Evan's Blue at 2% injected intravenously.
0.1 ml of 0.9% NaCl was then injected intradermally in the left flank and 0.01 ml of histamine ([…]) in the right flank.
The rats were sacrificed after 40 minutes and the injection sites removed. The Evan's Blue was extracted from the skin with 65% formamide and the solvent was removed by filtration. The optical density was determined as 620 nm.

Series [3] can be described thus: Acute toxicity (intraperitoneal) in rats. To be noted: rat, in vivo, ip, Sprague-Dawley rats, Example 1 given as 20 mg/ml aqueous suspension, nicardipine under the same conditions. As to the method:
The acute toxicity of the compound of example 1 was determined on rats injected intraperitoneally (Sprague-Dawley rats) and the product was administered as a 20 mg/ml aqueous suspension.

The test system of series [4] is conscious Wistar rats suffering from genetic hypertension. The series can be described thus: Effects on mean arterial pressure and heartbeat frequency in conscious rats suffering from genetic hypertension. The format is in vivo, rat (Wistar). Conditions: oral, 16 mg/kg; for Heartbeat frequency / tachycardiac effect (in words): early effect (nicardipine after five minutes). As to the method: The effects were tested using conscious Wistar rats suffering from genetic hypertension (6 rats per compound). The compounds were administered orally as a 16 mg/kg (under 5.3 ml/kg) dose in suspension.

The IC50 is the concentration at which inhibition is half-maximal. A word on the inhibition: it is the drop in the measured response relative to a control, in per cent. Consider `COC(=O)C1=C(C)NC(C)=C(C(=O)O[C@H]2CCCN(CCCC(=O)c3c(OC)cc(OC)cc3OC)C2)[C@H]1c1cccc([N+](=O)[O-])c1` (single isomer, unassigned) [Example 8, hydrochloride], for which the IC50 at DHP membranous site was 4 nM. Further, the Solubility in water result in series [1] is given as “water-insoluble”. Also, the inhibition at 0.004 µM with rat's isolated aorta (dose 4 × 10^-9 M (= receptor IC50)) amounted to 40%.

`COC(=O)C1=C(C)NC(C)=C(C(=O)O[C@@H]2CCCN(CCCC(=O)c3c(OC)cc(OC)cc3OC)C2)[C@H]1c1cccc([N+](=O)[O-])c1` (single isomer, unassigned) [Example 9, hydrochloride]: the IC50 at DHP membranous site came to 0.6 nM. In series [1], the Solubility in water entry is recorded as “water-insoluble”. Further, the inhibition at 0.0006 µM in the series on rat's isolated aorta (dose 6 × 10^-10 M (= receptor IC50)) worked out at 60%.

Broadly, the LD50 is the dose expected to kill half of the subjects tested. Low values mean greater toxicity, high ones lower toxicity. As to `COC(=O)C1=C(C)NC(C)=C(C(=O)OC2CCCN(CCCC(=O)c3c(OC)cc(OC)cc3OC)C2)C1c1cccc([N+](=O)[O-])c1` (centres unmarked) [Example 1, 2,6-dimethyl-4-(3-nitro-phenyl)-5-methoxycarbonyl-1,4-dihydropyridine-3-carboxylic acid N-[3-(2,4,6-trimethoxybenzoyl)propyl]piperidine-3'-yl ester, hydrochloride], in series [2] (10 mg/kg intraperitoneal), the “Antihyperpermeable effect (intradermal concentration of Evan's Blue induced by histamine, in words)” value is on record as “decrease greatly the intradermal concentration of Evan's Blue”. For the same compound, the “Decrease in the intradermal concentration of Evan's Blue” value in series [2] (ip, 10 mg/kg) is on record as 50%. In series [1] (hydrochloride), the Solubility in water entry is listed as “water-insoluble”. In series [3], this compound gave a median lethal dose (LD50) of 249 ± 50 mg/kg. Also, in series [4], the “Duration of significant hypotension” value is given as “at least 7 hours”; the “Heartbeat frequency, variation after 5 mins” value was “+13%”; the “Arterial pressure, variation after 3 hrs” value was -50%; the “Heartbeat frequency, variation after 5 hrs” value is 0%. In addition, in series [4], the “Arterial pressure, variation after 7 hrs” value is reported as -42%; the “Heartbeat frequency / tachycardiac effect (in words)” value was “only slightly increased”; the “Secondary tachycardiac effect (in words)” value is listed as “not found”. Moreover, the “Hypotension (in words)” value in series [4] (during at least 7 hours) was “significantly raised”.

Take `COC(=O)C1=C(C)NC(C)=C(C(=O)OC2CCCN(CCCC(=O)c3c(OC)cc(OC)cc3OC)C2)C1c1cccc([N+](=O)[O-])c1` (centres unmarked) [Example 2, 2,6-dimethyl-4-(-3-nitrophenyl)-5-methoxycarbonyl-1,4-dihydropyridine-3-carboxylic acid N-[3-(2,4,6,trimethoxybenzoyl)propyl]piperidine-3-yl ester]: the IC50 at DHP membranous site was determined as 10 nM. Moreover, in series [1], the Solubility in water result is “soluble in water in the presence of acetic acid”. In addition, in the series with rat's isolated aorta (dose 10^-8 M (= receptor IC50)), the inhibition at 0.01 µM stood at 60%.

`COC(=O)C1=C(C)NC(C)=C(C(=O)OCC2CCCN2CCCC(=O)c2c(OC)cc(OC)cc2OC)C1c1cccc([N+](=O)[O-])c1` (centres unmarked) [Example 3, 2,6-dimethyl-4-(3-nitrophenyl-5-methoxycarbonyl-1,4-dihydropyridine-3-carboxylic acid N-[3-(2,4,6-trimethoxybenzoyl)propyl]pyrrolidylmethyl ester, hydrochloride]: the Solubility in water result in series [1] was “water-insoluble”.

For the compound `COC(=O)C1=C(C)NC(C)=C(C(=O)O[C@H]2CCCN(CCCC(=O)c3c(OC)cc(OC)cc3OC)C2)[C@H]1c1cccc([N+](=O)[O-])c1` [Example 4, (+)(4S, 3'S) 2,6-dimethyl-4-(3-nitrophenyl)-5-methoxycarbonyl-1,4-dihydropyridine-3-carboxylic acid N-[3-(2,4,6-trimethoxybenzoyl)propyl]piperidine-3'-yl ester], at DHP membranous site, the IC50 was determined as 3 nM. For the same compound, the Solubility in water result in series [1] is “water-insoluble”. Further, the inhibition at 0.003 µM in the series on rat's isolated aorta (dose 3 × 10^-9 M (= receptor IC50)) came to 70%.

For the compound `COC(=O)C1=C(C)NC(C)=C(C(=O)O[C@@H]2CCCN(CCCC(=O)c3c(OC)cc(OC)cc3OC)C2)[C@@H]1c1cccc([N+](=O)[O-])c1` [Example 5, (-)(4R, 3'R) 2,6-dimethyl-4-(3-nitrophenyl)-5-methoxycarbonyl-1,4-dihydropyridine-3-carboxylic acid N-[3-(2,4,6-trimethoxybenzoyl)propyl]piperidine-3-yl ester], the Solubility in water result in series [1] is “water-insoluble”.

Consider `COC(=O)C1=C(C)NC(C)=C(C(=O)O[C@H]2CCCN(CCCC(=O)c3c(OC)cc(OC)cc3OC)C2)[C@@H]1c1cccc([N+](=O)[O-])c1` [Example 6, (+)(4R, 3'S) 2,6-dimethyl-4-(3-nitrophenyl)-5-methoxycarbonyl-1,4-dihydropyridine-3-carboxylic acid N-[3-(2,4,6-trimethoxybenzoyl)propyl]piperidine-3'-yl ester], for which the Solubility in water result in series [1] was “water-insoluble”.

Turning to `COC(=O)C1=C(C)NC(C)=C(C(=O)O[C@@H]2CCCN(CCCC(=O)c3c(OC)cc(OC)cc3OC)C2)[C@H]1c1cccc([N+](=O)[O-])c1` [Example 7, (-)(4S, 3'R) 2,6-dimethyl-4-(3-nitrophenyl)-5-methoxycarbonyl-1,4-dihydropyridine-3-carboxylic acid N-[3-(2,4,6-trimethoxybenzoyl)propyl]piperidine-3'-yl ester], at DHP membranous site, the concentration for half-maximal inhibition (IC50) stood at 2 nM. For the same compound, the Solubility in water entry in series [1] is on record as “water-insoluble”. For the same compound, the inhibition at 0.002 µM in the series on rat's isolated aorta (dose 2 × 10^-9 M (= receptor IC50)) stood at 80%.

Consider `COC(=O)C1=C(C)NC(C)=C(C(=O)OC2CCCN(CCCC(=O)c3c(OC)cc(OC)cc3OC)C2)C1c1cccc([N+](=O)[O-])c1` (centres unmarked) [Example 10, 2,6-dimethyl-4-(3-nitrophenyl)-5-methoxycarbonyl-1,4-dihydropyridine-3-carboxylic acid N-[3-(2,4,6-trimethoxybenzoyl)propyl]piperidine-3'-yl, lactate], for which the Solubility in water entry in series [1] is reported as “soluble in cold water but is precipitated on warming”.

As for `COC(=O)C1=C(C)NC(C)=C(C(=O)OC2CCCN(CCCC(=O)c3c(OC)cc(OC)cc3OC)C2)C1c1cccc([N+](=O)[O-])c1` (centres unmarked) [Example 11, 2,6-dimethyl-4-(3-nitrophenyl)-5-methoxycarbonyl-1,4-dihydropyridine-3-carboxylic acid N-[3-(2,4,6-trimethoxybenzoyl)propyl]piperidine-3'-yl ester, glutamate], the Solubility in water result in series [1] is listed as “water-insoluble”.

For `COC(=O)C1=C(C)NC(C)=C(C(=O)OC2CCCN(CCCC(=O)c3c(OC)cc(OC)cc3OC)C2)C1c1cccc([N+](=O)[O-])c1` (centres unmarked) [Example 12, 2,6-dimethyl-4-(3-nitrophenyl)-5-methoxycarbonyl-1,4-dihydropyridine-3-carboxylic acid N-[3-(2,4,6-trimethoxybenzoyl)propyl]piperidine-3'-yl ester, aspartate], the Solubility in water result in series [1] is reported as “water-insoluble”.

With `COC(=O)C1=C(C)NC(C)=C(C(=O)OCCN(C)Cc2ccccc2)C1c1cccc([N+](=O)[O-])c1` (centres unmarked) [nicardipine, reference compound], the LD50 in series [3] turned out to be 233 ± 65 mg/kg. Also, in series [4], the “Time of maximum secondary tachycardiac effect” value is 5 h; the “Heartbeat frequency, variation after 5 mins” value was “+32%”; the “Arterial pressure, variation after 3 hrs” value is recorded as -39%; the “Heartbeat frequency, variation after 5 hrs” value is on record as “+23%”. Moreover, in series [4], the “Arterial pressure, variation after 7 hrs” value was -27%; the “Heartbeat frequency / tachycardiac effect (in words)” value is listed as “clear tachycardiac effect after five minutes”; the “Secondary tachycardiac effect (in words)” value was “secondary tachycardiae effect was also observed”.

The record behind these values is patent US5250543A, “Derivatives of 1,4-dihydropyridine, their preparation procedure and therapeutic compositions containing them” (priority 1991, dated 1993).
